The values that follow come from patent US9326971B2, “4-methylpyrazole formulations for inhibiting ethanol intolerance” (Raptor Pharmaceuticals Inc., priority 2004, dated 2016).

Experiment [1] concerns ethanol elimination rate. The note with it: human subjects, cited from earlier work.
Experiment [2] deals with serum acetaldehyde concentration. Briefly: Blinded, intra-subject controlled single dose study: serum acetaldehyde after oral 4-MP and ethanol in ethanol-intolerant subjects genotyped for ALDH2 and ADH2. The experiment is classed as in vivo, human. The protocol: A blinded, intra-subject controlled, single dose, dose escalation study of 4-MP for mitigation of acetaldehyde related toxicity in subjects with symptoms of inborn altered ethanol metabolism with concomitant ethanol exposure was undertaken.
Twenty-four subjects (n=24) were randomly selected and orally administered 1 mg/kg, 3 mg/kg, or 5 mg/kg of 4-MP, followed 30 minutes later by an oral dose of 20% ethanol ([…]).
Using the same protocol, wherein 4-MP was replaced with placebo, each of the twenty-four randomly selected subjects served as its own control.
The twenty-four randomly selected subjects were then subjected to blood sampling, and the sampled blood analyzed for acetaldehyde levels at select time points following ethanol consumption.
For acetaldehyde analysis, blood samples were prepared by dilution with an internal standard (acetaldehyde-d4), with derivatization of acetaldehyde with dinitrophenyl hydrazine in hydrochloric acid, liquid-liquid portioning and solvent exchange. The derivatization forms an acetaldehyde-dinitrophenyl hydrazine (DNPH) derivative which dramatically increases the boiling point of the molecule and thus its relative stability compared to the acetaldehyde itself (Nagy et al., Rapid Communications in Mass Spectrometry 2004, 18, 2473-2478). The derivatized analytes were separated using a Jones Chromatography (Grace-Vydac), 50 mm×2.1 mm, 3 μm column held in an oven set at 28° C. Two mobile phases were used in a gradient consisting of 30:70 acetonitrile:water versus 90:10 acetonitrile:water with 0.1% formic acid. The derivatized analyte was detected on a High Performance Liquid Chromatograph equipped with a Mass Spectrometer (HPLC/MS/MS). Quantitation was performed using a linear regression curve fit of impurities standards with 1/x weighting, prepared from dilutions of acetaldehyde in water. Samples and standards were injected at 2 μL.
All […] subjects were then genotyped for ALDH2 and ADH2 at the Alcohol Research Center at Indiana University using (i) genomic DNA isolation and (ii) TaqMan assay for allelic discrimination. • i. Genomic DNA isolation: DNA was first isolated using the “HotSHOT” method for isolating PCR quality genomic DNA (Truett et al., Biotechniques 2000, 29(1), 52-54). Briefly, blood blotted on filter paper (3 mm circle) was placed in the well of a 96-well plate and mixed with 75 μL 25 mM NaOH/0.3 mM EDTA solution and heated to 95° C. for 40 minutes, followed by neutralization with 75 μL 40 mM Tris-HCl (pH 5) solution. 1-5 microliters were used for each PCR. • ii. TaqMan Assay for Allelic Discrimination: The allelic discrimination assay used a multiplexed (more than one primer/probe pair per reaction), end-point (data is collected at the end of the PCR process) assay. Each assay mix contained two different TaqMan probes (Applied BioSystems, Foster City, Calif.), labeled with VIC or FAM fluorescent reporter dye, which bound preferentially to one of the alleles. The genotype of each sample was determined by the fluorescence levels of the reporter dyes and was clustered on a graph with other samples of the same genotype. Each reaction contained 5 μL of 2×TaqMan Universal PCR Masternix, No AmpErase UNG, 3.75 μL of water, 0.25 μL of 40× Assay Mix, and 1 μL of DNA sample. Eight or eleven controls were included on each 96-well plate: two no template controls, two or three heterozygous samples, and two or three of each of the homozygous samples. Thermocycling was carried out in MJ Research PTC-200 thermocyclers. The PCR products were then analyzed in an ABI PRISM® 7300 Sequence Detection System (SDS) instrument. SDS Software 1.3.1 converted the raw data to pure dye components and plotted the results of the allelic discrimination on a scatter plot of Allele X versus Allele Y (e.g., ADH2*1 versus ADH2*2); each genotype appeared on the graph as a cluster of points. […]

The subject of experiment [3] is ethanol elimination rate. Briefly: Percent reduction in ethanol elimination rate versus dose of 4-MP in human subjects (literature data, FIG. 2). It counts as in vivo. To be noted: doses of 4 mg/kg 4-MP and less; from linear least squares fit of literature data (FIG. 2). The text has this:
As used herein, “ethanol elimination rate” refers to the reduction in ethanol concentration in a subject's bloodstream over time after the subject has ingested ethanol. Typically, an ethanol elimination rate can be expressed in terms of millimole ethanol/kilogram subject body mass/hour. Techniques for blood sampling and analysis of ethanol levels in blood are well known to those of skill in the art. See, e.g., Inoue et al., Alcoholism: Clinical and Experimental Research 1984, 8, 319-322, incorporated herein by reference in its entirety. A “percent change in ethanol elimination rate,” can be calculated as follows:
[formula] where EtOH represents ethanol, and a number for a percent change in ethanol elimination that is less than 100 is a reduction in the percent change in EtOH elimination. Blood ethanol levels can also be calculated, for example, based on algorithms utilizing the amount of ethanol consumed by a subject, the subject's body mass, and time period since the consumption of ethanol, or, as another example, blood ethanol levels can be extrapolated from analysis of a subject's breath, and the like, as known to those of skill in the art. […]

Where [4] appears, read: all subjects with reduced or absent ALDH2 activity, 1, 3 or 5 mg/kg 4-MP.
Where [5] appears, read: reduced ALDH2 activity, ADH2*1/ADH2*1 or ADH2*1/ADH2*2, 1 mg/kg 4-MP.
Where [6] appears, read: reduced or absent ALDH2 activity, ADH2*2/ADH2*2, 1 mg/kg 4-MP.

Read-outs that look alike come from different tables or passages of the source.

Take `Cc1cn[nH]c1` [4-MP, 4-methylpyrazole]: the “reduction in EtOH elimination” value with ethanol elimination rate [1] (6 mg 4-MP per kilogram body weight, Lindros et al. 1981) is on record as 20%; with ethanol elimination rate [1] (8.5 mg 4-MP per kilogram body weight, Inoue et al. 1985), 12%; in the experiment on ethanol elimination rate [1] (10 mg 4-MP per kilogram body weight, Inoue et al. 1984), 20%; in the experiment with ethanol elimination rate [1] (12.5 mg 4-MP per kilogram body weight, Sarkola et al. 2002), 34%. Further, the “Cmax mean and AUC0-8H mean of acetaldehyde concentration in the blood, versus absence of 4-MP (in words)” value in experiment [2] (setting [4]) is recorded as “not significantly reduced”; in experiment [2] (setting [5]) it was “significantly reduced”; in experiment [2] (setting [6]) it was “not significantly reduced”. Further, the “peak mean acetaldehyde concentration in the blood due to drinking ethanol (FIG. 5), versus placebo” value in experiment [2] (setting [4]) was “not reduced”. The “peak mean acetaldehyde concentration in the blood due to drinking ethanol (FIG. 3), versus placebo” value in experiment [2] (setting [5]) is on record as “can be reduced”. In addition, the “peak mean acetaldehyde concentration in the blood due to drinking ethanol (FIG. 4), versus placebo” value in experiment [2] (setting [6]) is given as “not reduced”. The “reduction in ethanol elimination” value in the experiment on ethanol elimination rate [3] is given as “less than 10%”.
